Measurements taken from US11084800B2 (Achillion Pharmaceuticals, Inc., priority 2017, dated 2021).

Each compound was assayed against Human Factor D (Homo sapiens (Human), UniProt P00746) (assay: Human Factor D Assay). Details: Table 6; Factor D 80 nM, substrate Z-L-Lys-SBz; read-out: IC50.
Assay type: biochemical
Procedure, shortened: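 Thioester substrate Z-L-Lys-SBz (100 μM) with Ellman's reagent DTNB (100 μM) reports activity of 80 nM human serum-derived enzyme, kinetically at 405 nm over 30 min. Compound preincubated 5 min, room temperature, pH 7.5 Tris/1 M NaCl; IC50 by nonlinear fit of rates.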

Sequence of Human Factor D (P00746 26-253): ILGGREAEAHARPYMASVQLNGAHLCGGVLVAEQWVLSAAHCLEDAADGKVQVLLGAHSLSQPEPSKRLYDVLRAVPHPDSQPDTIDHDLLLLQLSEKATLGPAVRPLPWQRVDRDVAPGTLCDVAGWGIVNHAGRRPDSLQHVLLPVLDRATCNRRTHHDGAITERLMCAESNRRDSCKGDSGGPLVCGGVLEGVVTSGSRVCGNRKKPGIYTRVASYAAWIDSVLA

SMILES | IC50 [nM]
CC(=O)c1nn(CC(=O)N2[C@H](C(=O)Nc3nc(Br)ccc3C)C[C@@]3(C)C[C@@H]23)c2ccc(-c3cnc(N(C)C)nc3)cc12 [Compound 125, (1R,3S,5R)-2-(2-(3-Acetyl-5-(2-(dimethylamino)pyrimidin-5-yl)-1H-indazol-1-yl)acetyl)-N-(6-bromo-3-methylpyridin-2-yl)-5-methyl-2-azabicyclo[3.1.0]hexane-3-carboxamide] | < 1000
CC(=O)c1nn(CC(=O)N2[C@H](C(=O)O)C[C@@]3(C)C[C@@H]23)c2c(C)cc(-c3cnc(C)nc3)cc12 [Compound 126, (1R,3S,5R)-2-(2-(3-acetyl-7-methyl-5-(2-methylpyrimidin-5-yl)-1H-indazol-1-yl)acetyl)-5-methyl-2-azabicyclo[3.1.0]hexane-3-carboxylic acid] | > 10000
CC(=O)c1nn(CC(=O)N2[C@H](C(=O)Nc3nc(Br)ccc3C)C[C@@]3(CN4CC5(COC5)C4)C[C@@H]23)c2c(C)cc(-c3cnc(C)nc3)cc12 [Compound 127, (1R,3S,5R)-5-(2-Oxa-6-azaspiro[3.3]heptan-6-ylmethyl)-2-(2-(3-acetyl-7-methyl-5-(2-methylpyrimidin-5-yl)-1H-indazol-1-yl)acetyl)-N-(6-bromo-3-methylpyridin-2-yl)-2-azabicyclo[3.1.0]hexane-3-carboxamide] | < 1000
CC(=O)c1nn(CC(=O)N2[C@H](C(=O)Nc3nc(Br)ccc3C)C[C@@]3(CN4C[C@H]5CCC[C@H]5C4)C[C@@H]23)c2c(C)cc(-c3cnc(C)nc3)cc12 [Compound 128, (1R,3S,5R)-2-(2-(3-Acetyl-7-methyl-5-(2-methylpyrimidin-5-yl)-1H-indazol-1-yl)acetyl)-N-(6-bromo-3-methylpyridin-2-yl)-5-(((3aR,6aS)-hexahydrocyclopenta[c]pyrrol-2(1H)-yl)methyl)-2-azabicyclo[3.1.0]hexane-3-carboxamide] | < 1000
CC(=O)c1nn(CC(=O)N2[C@H](C(=O)Nc3nc(Br)ccc3C)C[C@@]3(CN4CC5(CCCC5)C4)C[C@@H]23)c2c(C)cc(-c3cnc(C)nc3)cc12 [Compound 129, (1R,3S,5R)-5-(2-Azaspiro[3.4]octan-2-ylmethyl)-2-(2-(3-acetyl-7-methyl-5-(2-methylpyrimidin-5-yl)-1H-indazol-1-yl)acetyl)-N-(6-bromo-3-methylpyridin-2-yl)-2-azabicyclo[3.1.0]hexane-3-carboxamide] | < 1000
CC(=O)c1nn(CC(=O)N2[C@H](C(=O)Nc3nc(Br)ccc3C)C[C@@]3(C)C[C@@H]23)c2ccc(-c3cnc(C)nc3)c(F)c12 [Compound 130, (1R,3S,5R)-2-(2-(3-Acetyl-4-fluoro-5-(2-methylpyrimidin-5-yl)-1H-indazol-1-yl)acetyl)-N-(6-bromo-3-methylpyridin-2-yl)-5-methyl-2-azabicyclo[3.1.0]hexane-3-carboxamide] | < 1000
CC(=O)c1nn(CC(=O)N2[C@H](C(=O)Nc3nc(Br)ccc3C)C[C@@]3(C)C[C@@H]23)c2c(C3CC3)cc(-c3cnc(C)nc3)cc12 [Compound 131, (1R,3S,5R)-2-(2-(3-Acetyl-7-cyclopropyl-5-(2-methylpyrimidin-5-yl)-1H-indazol-1-yl)acetyl)-N-(6-bromo-3-methylpyridin-2-yl)-5-methyl-2-azabicyclo[3.1.0]hexane-3-carboxamide] | < 1000
CCNC[C@@]12C[C@@H](C(=O)Nc3nc(Br)ccc3C)N(C(=O)Cn3nc(C(C)=O)c4cc(-c5cnc(C)nc5)cc(C)c43)[C@@H]1C2 [Compound 132, (1R,3S,5R)-2-(2-(3-Acetyl-7-methyl-5-(2-methylpyrimidin-5-yl)-1H-indazol-1-yl)acetyl)-N-(6-bromo-3-methylpyridin-2-yl)-5-((ethylamino)methyl)-2-azabicyclo[3.1.0]hexane-3-carboxamide] | < 1000
CC(=O)c1nn(CC(=O)N2[C@H](C(=O)Nc3nc(Br)ccc3C)C[C@@]3(C)C[C@@H]23)c2c(C(F)(F)F)cc(-c3cnc(C)nc3)cc12 [Compound 133, (1R,3S,5R)-2-(2-(3-Acetyl-5-(2-methylpyrimidin-5-yl)-7-(trifluoromethyl)-1H-indazol-1-yl)acetyl)-N-(6-bromo-3-methylpyridin-2-yl)-5-methyl-2-azabicyclo[3.1.0]hexane-3-carboxamide] | < 1000
C=CCOCc1ccc(Br)nc1NC(=O)[C@@H]1C[C@@]2(C=C)C[C@H]2N1C(=O)Cn1nc(C(C)=O)c2cc(-c3cnc(C)nc3)ccc21 [Compound 134, (1R,3S,5R)-2-(2-(3-Acetyl-5-(2-methylpyrimidin-5-yl)-1H-indazol-1-yl)acetyl)-N-(3-((allyloxy)methyl)-6-bromopyridin-2-yl)-5-vinyl-2-azabicyclo[3.1.0]hexane-3-carboxamide] | < 1000
CC(=O)c1nn(CC(=O)N2[C@H](C(=O)Nc3nc(Cl)ccc3CN(C)C)C[C@@]3(C)C[C@@H]23)c2ccc(-c3cnc(C)nc3)cc12 [Compound 135, (1R,3S,5R)-2-(2-(3-Acetyl-5-(2-methylpyrimidin-5-yl)-1H-indazol-1-yl)acetyl)-N-(6-chloro-3-((dimethylamino)methyl)pyridin-2-yl)-5-methyl-2-azabicyclo[3.1.0]hexane-3-carboxamide] | < 1000
CC(=O)c1nn(CC(=O)N2[C@H](C(=O)Nc3nc(Br)ccc3CN(C)C)C[C@@]3(C)C[C@@H]23)c2c(C)cc(-c3cnc(C)nc3)cc12 [Compound 136, (1R,3S,5R)-2-(2-(3-Acetyl-7-methyl-5-(2-methylpyrimidin-5-yl)-1H-indazol-1-yl)acetyl)-N-(6-bromo-3-((dimethylamino)methyl)pyridin-2-yl)-5-methyl-2-azabicyclo[3.1.0]hexane-3-carboxamide] | < 1000
CC(=O)c1nn(CC(=O)N2[C@H](C(=O)Nc3nc(Cl)ccc3CN(C)C)C[C@@]3(C)C[C@@H]23)c2c(C)cc(-c3cnc(C)nc3)cc12 [Compound 137, (1R,3S,5R)-2-(2-(3-Acetyl-7-methyl-5-(2-methylpyrimidin-5-yl)-1H-indazol-1-yl)acetyl)-N-(6-chloro-3-((dimethylamino)methyl)pyridin-2-yl)-5-methyl-2-azabicyclo[3.1.0]hexane-3-carboxamide] | < 1000
CC(=O)c1nn(CC(=O)N2[C@H](C(=O)Nc3nc(Br)ccc3CN3CCOCC3)C[C@@]3(C)C[C@@H]23)c2ccc(-c3cnc(C)nc3)cc12 [Compound 138, (1R,3S,5R)-2-(2-(3-Acetyl-5-(2-methylpyrimidin-5-yl)-1H-indazol-1-yl)acetyl)-N-(6-bromo-3-(morpholinomethyl)pyridin-2-yl)-5-methyl-2-azabicyclo[3.1.0]hexane-3-carboxamide] | < 1000
CC(=O)c1nn(CC(=O)N2[C@H](C(=O)Nc3nc(Cl)ccc3CN3CCOCC3)C[C@@]3(C)C[C@@H]23)c2ccc(-c3cnc(C)nc3)cc12 [Compound 139, (1R,3S,5R)-2-(2-(3-Acetyl-5-(2-methylpyrimidin-5-yl)-1H-indazol-1-yl)acetyl)-N-(6-chloro-3-(morpholinomethyl)pyridin-2-yl)-5-methyl-2-azabicyclo[3.1.0]hexane-3-carboxamide] | < 1000
Cc1ncc(-c2cc(C)c3c(c2)c(C(C)O)nn3CC(=O)N2[C@H](C(=O)Nc3nc(Br)ccc3C)C[C@@]3(C)C[C@@H]23)cn1 (stereo partly shown) [Compound 140] | < 1000
